# Data taken from ChEMBL document CHEMBL1909046, “DrugMatrix in vitro pharmacology data”.
# Key:
# [1] = molecular target: Melanocortin receptor 3 (Homo sapiens, UniProt P41968); format: cell membranes, Membrane; details: hek293; further: in other assays of this panel Not Active means under 50% inhibition at 10 µM
# [2] = molecular target: Acetylcholinesterase (Homo sapiens, UniProt P22303); assay: DRUGMATRIX: Acetylcholinesterase enzyme inhibition (substrate: acetylthiocholine); format: cell-based, HEK293; details: hek293; Not Active = under 50% inhibition at 10 µM
# Acetylcholinesterase, sequence (P22303 whole entry): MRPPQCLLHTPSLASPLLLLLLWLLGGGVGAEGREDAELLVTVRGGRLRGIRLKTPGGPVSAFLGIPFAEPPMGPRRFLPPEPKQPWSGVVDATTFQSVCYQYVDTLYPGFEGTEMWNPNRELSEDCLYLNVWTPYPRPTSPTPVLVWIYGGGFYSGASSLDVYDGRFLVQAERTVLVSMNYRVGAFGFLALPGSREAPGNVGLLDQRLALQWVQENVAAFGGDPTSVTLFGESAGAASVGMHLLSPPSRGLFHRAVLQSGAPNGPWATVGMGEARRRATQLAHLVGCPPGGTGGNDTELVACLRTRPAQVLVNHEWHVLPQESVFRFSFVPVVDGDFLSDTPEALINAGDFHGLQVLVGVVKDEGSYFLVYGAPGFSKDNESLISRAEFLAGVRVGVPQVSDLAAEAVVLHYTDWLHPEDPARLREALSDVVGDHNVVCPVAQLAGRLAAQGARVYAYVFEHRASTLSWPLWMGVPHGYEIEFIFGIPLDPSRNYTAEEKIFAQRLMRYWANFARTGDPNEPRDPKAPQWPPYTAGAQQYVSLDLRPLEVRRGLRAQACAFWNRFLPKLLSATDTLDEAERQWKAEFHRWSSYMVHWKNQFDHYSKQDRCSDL
# [3] = molecular target: Tyrosine-protein kinase Lck (Homo sapiens, UniProt P06239); assay: DRUGMATRIX: Protein Tyrosine Kinase, LCK enzyme inhibition (substrate: Poly(Glu:Tyr)); format: cell-based, Insect cells; details: Not Active = under 50% inhibition at 10 µM
# Tyrosine-protein kinase Lck, sequence (P06239 whole entry): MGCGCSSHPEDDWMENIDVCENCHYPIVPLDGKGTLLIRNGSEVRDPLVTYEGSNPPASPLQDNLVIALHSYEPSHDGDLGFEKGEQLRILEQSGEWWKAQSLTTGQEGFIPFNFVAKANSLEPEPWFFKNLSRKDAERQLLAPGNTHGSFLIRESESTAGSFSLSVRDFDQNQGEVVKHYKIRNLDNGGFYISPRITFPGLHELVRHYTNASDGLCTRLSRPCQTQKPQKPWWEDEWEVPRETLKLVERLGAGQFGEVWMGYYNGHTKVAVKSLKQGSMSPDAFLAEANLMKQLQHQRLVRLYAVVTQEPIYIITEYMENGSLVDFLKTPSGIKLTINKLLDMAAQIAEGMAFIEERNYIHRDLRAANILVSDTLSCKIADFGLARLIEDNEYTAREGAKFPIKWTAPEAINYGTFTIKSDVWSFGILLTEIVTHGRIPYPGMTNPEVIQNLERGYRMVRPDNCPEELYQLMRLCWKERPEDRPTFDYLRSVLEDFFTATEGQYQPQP
# [4] = molecular target: cGMP-specific 3',5'-cyclic phosphodiesterase (Homo sapiens, UniProt O76074); assay: DRUGMATRIX: Phosphodiesterase PDE5 enzyme inhibition (substrate: [3H]cGMP + cGMP); format: tissue-based; details: platelet; Not Active = under 50% inhibition at 10 µM
# [5] = molecular target: T1, Interstitial collagenase (Homo sapiens, UniProt P03956); format: tissue-based, Rheumatoid synovial fibroblasts;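 further: MMP-1 enzyme inhibition assay using a peptide substrate; in other assays of this panel Not Active means under 50% inhibition at 10 µM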
# T1 sequence (P03956 whole entry): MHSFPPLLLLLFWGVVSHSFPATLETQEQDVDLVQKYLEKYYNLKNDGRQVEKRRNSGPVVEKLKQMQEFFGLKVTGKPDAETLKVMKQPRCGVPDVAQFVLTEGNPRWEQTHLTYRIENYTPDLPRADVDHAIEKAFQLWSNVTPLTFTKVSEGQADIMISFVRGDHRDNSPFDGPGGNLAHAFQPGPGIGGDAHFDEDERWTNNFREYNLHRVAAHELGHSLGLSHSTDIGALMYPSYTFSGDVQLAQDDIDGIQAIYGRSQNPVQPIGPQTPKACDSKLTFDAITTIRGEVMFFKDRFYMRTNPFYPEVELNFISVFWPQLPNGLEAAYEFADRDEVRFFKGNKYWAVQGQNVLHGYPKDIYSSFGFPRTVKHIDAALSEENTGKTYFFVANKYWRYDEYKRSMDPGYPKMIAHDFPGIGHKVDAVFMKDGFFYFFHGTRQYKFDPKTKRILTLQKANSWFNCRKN
# [6] = molecular target: T2, Glucocorticoid receptor (Homo sapiens, UniProt P04150); details: hela s3; further: in other assays of this panel Not Active means under 50% inhibition at 10 µM
# T2 sequence (P04150 whole entry): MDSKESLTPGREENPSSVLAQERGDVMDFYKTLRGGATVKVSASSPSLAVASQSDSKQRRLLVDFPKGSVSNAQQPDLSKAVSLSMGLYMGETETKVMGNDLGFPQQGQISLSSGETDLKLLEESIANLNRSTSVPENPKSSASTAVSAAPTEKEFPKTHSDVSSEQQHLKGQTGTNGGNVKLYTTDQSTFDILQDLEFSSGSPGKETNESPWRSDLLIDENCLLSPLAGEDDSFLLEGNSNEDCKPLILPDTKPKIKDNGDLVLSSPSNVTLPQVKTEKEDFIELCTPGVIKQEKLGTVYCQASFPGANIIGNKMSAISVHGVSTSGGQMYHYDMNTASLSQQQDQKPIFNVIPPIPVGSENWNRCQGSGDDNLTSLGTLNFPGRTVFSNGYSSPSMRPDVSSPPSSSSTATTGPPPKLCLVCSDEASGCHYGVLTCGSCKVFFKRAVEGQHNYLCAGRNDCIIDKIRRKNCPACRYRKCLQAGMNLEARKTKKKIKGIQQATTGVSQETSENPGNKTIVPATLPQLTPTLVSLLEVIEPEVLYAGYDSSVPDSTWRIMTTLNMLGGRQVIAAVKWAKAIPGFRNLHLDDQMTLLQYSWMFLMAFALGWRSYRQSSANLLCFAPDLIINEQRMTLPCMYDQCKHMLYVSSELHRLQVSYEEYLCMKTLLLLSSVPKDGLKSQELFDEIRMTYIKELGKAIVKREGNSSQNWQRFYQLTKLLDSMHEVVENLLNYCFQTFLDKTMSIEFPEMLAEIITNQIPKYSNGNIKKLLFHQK
# [7] = DRUGMATRIX: beta-Lactamase enzyme inhibition (substrate: Nitrocefin); parameters: species or system Bacillus cereus; details: Not Active = under 50% inhibition at 10 µM
# Melanocortin receptor 3, sequence (P41968 whole entry): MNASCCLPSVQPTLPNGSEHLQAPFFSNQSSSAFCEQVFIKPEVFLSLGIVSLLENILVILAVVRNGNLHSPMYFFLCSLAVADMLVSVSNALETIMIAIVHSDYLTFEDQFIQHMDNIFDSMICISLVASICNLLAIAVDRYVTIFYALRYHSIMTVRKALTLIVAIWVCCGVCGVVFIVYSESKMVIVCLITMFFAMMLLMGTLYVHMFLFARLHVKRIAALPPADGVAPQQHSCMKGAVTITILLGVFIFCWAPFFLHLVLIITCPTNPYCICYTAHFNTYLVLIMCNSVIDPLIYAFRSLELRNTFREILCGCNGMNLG
Compound,IC50 [1],IC50 [2],IC50 ([3]; insect cells),IC50 [4],IC50 [5],IC50 [6],IC50 [7],Ki [7],IC50 ([3]; read-out: IC50),Ki [1],Ki [2],Ki ([3]; insect cells),Ki [4],Ki [5],Ki [6]
CN[C@@H]1[C@H](O)[C@H](NC)[C@H]2O[C@@]3(O)C(=O)C[C@@H](C)O[C@H]3O[C@@H]2[C@H]1O [SPECTINOMYCIN],Not Active,Not Active,Not Active,Not Active,Not Active,Not Active,Not Active,Not Active,–,–,–,–,–,–,–
Nc1ccc(S(=O)(=O)Nc2nccs2)cc1 [SULFATHIAZOLE],Not Active,Not Active,Not Active,Not Active,Not Active,Not Active,Not Active,Not Active,–,–,–,–,–,–,–
CC(C)(C)NC[C@H](O)COc1nsnc1N1CCOCC1 [TIMOLOL],Not Active,Not Active,Not Active,Not Active,Not Active,Not Active,Not Active,Not Active,–,–,–,–,–,–,–
C[C@@H]1C[C@H]2[C@@H]3CCC4=CC(=O)C=C[C@]4(C)C3=CC[C@]2(C)[C@H]1C(=O)CN1CCN(c2cc(N3CCCC3)nc(N3CCCC3)n2)CC1 [TIRILAZAD],Not Active,Not Active,–,Not Active,Not Active,Not Active,Not Active,Not Active,15.8 µM,–,–,–,–,–,–
COc1ccc(CN2CCNCC2)c(OC)c1OC [TRIMETAZIDINE],Not Active,Not Active,Not Active,Not Active,Not Active,Not Active,Not Active,Not Active,–,–,–,–,–,–,–
COc1cc(C(=O)NS(=O)(=O)c2ccccc2C)ccc1Cc1cn(C)c2ccc(NC(=O)OC3CCCC3)cc12 [ZAFIRLUKAST],Not Active,Not Active,Not Active,Not Active,Not Active,Not Active,Not Active,Not Active,–,–,–,–,–,–,–
Cc1cn([C@H]2C[C@H](N=[N+]=[N-])[C@@H](CO)O2)c(=O)[nH]c1=O [ZIDOVUDINE],Not Active,Not Active,Not Active,Not Active,Not Active,Not Active,Not Active,Not Active,–,–,–,–,–,–,–
STANNOUS FLUORIDE,Not Active,Not Active,Not Active,Not Active,Not Active,Not Active,Not Active,Not Active,–,Not Active,Not Active,Not Active,Not Active,Not Active,Not Active
THIMEROSAL,Not Active,Not Active,Not Active,Not Active,Not Active,Not Active,Not Active,Not Active,–,Not Active,Not Active,Not Active,Not Active,Not Active,Not Active
